# Columns and labels:
# Experiment in all cases: Kinase inhibitor library screening, PrestoBlue cell viability, 1 or 10 μM, 72 h
# 501Mel cells (parental) = settings: 501Mel Parental, in %
# How it was run: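 Each compound was applied to parental melanoma cells and to derivatives made resistant to Vemurafenib or Dabrafenib. After treatment, viability was read with PrestoBlue on a plate reader and expressed as % of untreated cells, with each line run at least in duplicate.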
# [1] = test system: 501Mel-GP cells (Dabrafenib-resistant); settings: 501Mel GP, in %
# [2] = test system: 501Mel-XP cells (Vemurafenib-resistant); settings: 501Mel XP, in %
# A375 cells (parental) = settings: A375 Parental; for cell viability (kinase inhibitor library screening): in %
# [3] = test system: A375-GP cells (Dabrafenib-resistant); settings: A375 GP; for cell viability (kinase inhibitor library screening): in %
# [4] = test system: A375-XP cells (Vemurafenib-resistant); settings: A375 XP; for cell viability (kinase inhibitor library screening): in %
# IGR37 cells (parental) = settings: IGR37 Parental, in %
# [5] = test system: IGR37-GP cells (Dabrafenib-resistant); settings: IGR37 GP
# [6] = test system: IGR37-XP cells (Vemurafenib-resistant); settings: IGR37 XP; for cell viability (kinase inhibitor library screening): in %
compound,measurement,setting,value
Cc1cc(C)c(/C=C2\C(=O)Nc3ccccc32)[nH]1 [Semaxanib (SU5416)],cell viability (kinase inhibitor library screening),501Mel cells (parental); 1μΜ,100.0
same,cell viability (kinase inhibitor library screening),501Mel cells (parental); 10μΜ,90.0
same,cell viability (kinase inhibitor library screening),[1]; 1μΜ,104.6
same,cell viability (kinase inhibitor library screening),[1]; 10μΜ,82.4
same,cell viability (kinase inhibitor library screening),[2]; 1μΜ,89.0
same,cell viability (kinase inhibitor library screening),[2]; 10μΜ,70.1
same,cell viability (kinase inhibitor library screening),A375 cells (parental); 1μΜ,104.2
same,cell viability (kinase inhibitor library screening),A375 cells (parental); 10μΜ,98.1
same,cell viability (kinase inhibitor library screening),[3]; 1μΜ,106.4
same,cell viability (kinase inhibitor library screening),[3]; 10μΜ,85.4
same,cell viability (kinase inhibitor library screening),[4]; 10μΜ,97.5
same,cell viability (kinase inhibitor library screening),IGR37 cells (parental); 1μΜ,100.1
same,cell viability (kinase inhibitor library screening),IGR37 cells (parental); 10μΜ,97.0
same,cell viability (kinase inhibitor library screening),"[5]; 1μΜ, in %",92.4
same,cell viability (kinase inhibitor library screening),"[5]; 10μΜ, in %",88.3
same,cell viability (kinase inhibitor library screening),[6]; 1μΜ,100.1
same,cell viability (kinase inhibitor library screening),[6]; 10μΜ,61.3
Oc1cc(O)cc(/C=C/c2ccc(O)c(O)c2)c1 [Piceatannol],cell viability (kinase inhibitor library screening),501Mel cells (parental); 1μΜ,98.4
same,cell viability (kinase inhibitor library screening),501Mel cells (parental); 10μΜ,84.8
same,cell viability (kinase inhibitor library screening),[1]; 1μΜ,95.8
same,cell viability (kinase inhibitor library screening),[1]; 10μΜ,80.4
same,cell viability (kinase inhibitor library screening),[2]; 1μΜ,96.8
same,cell viability (kinase inhibitor library screening),[2]; 10μΜ,81.1
same,cell viability (kinase inhibitor library screening),A375 cells (parental); 1μΜ,98.9
same,cell viability (kinase inhibitor library screening),A375 cells (parental); 10μΜ,76.1
same,cell viability (kinase inhibitor library screening),[3]; 1μΜ,93.0
same,cell viability (kinase inhibitor library screening),[3]; 10μΜ,80.7
same,cell viability (kinase inhibitor library screening),[4]; 1μΜ,98.5
same,cell viability (kinase inhibitor library screening),[4]; 10μΜ,89.0
same,cell viability (kinase inhibitor library screening),IGR37 cells (parental); 1μΜ,98.6
same,cell viability (kinase inhibitor library screening),IGR37 cells (parental); 10μΜ,86.6
same,cell viability (kinase inhibitor library screening),"[5]; 1μΜ, in %",91.5
same,cell viability (kinase inhibitor library screening),"[5]; 10μΜ, in %",85.8
same,cell viability (kinase inhibitor library screening),[6]; 1μΜ,92.0
same,cell viability (kinase inhibitor library screening),[6]; 10μΜ,82.4
CN1CCN(c2nc(C3=C(c4c[nH]c5ccccc45)C(=O)NC3=O)c3ccccc3n2)CC1 [Sotrastaurin (AEB071)],"Cell viability in kinase inhibitor library screening, 501Mel Parental, 10μΜ","501Mel cells (parental); 10μΜ, 72 h",95.7
same,"Cell viability in kinase inhibitor library screening, 501Mel GP, 1μΜ","[1]; 1μΜ, 72 h",105.7
same,"Cell viability in kinase inhibitor library screening, 501Mel GP, 10μΜ","[1]; 10μΜ, 72 h",91.8
same,"Cell viability in kinase inhibitor library screening, 501Mel XP, 1μΜ","[2]; 1μΜ, 72 h",96.4
same,"Cell viability in kinase inhibitor library screening, 501Mel XP, 10μΜ","[2]; 10μΜ, 72 h",77.9
same,"Cell viability in kinase inhibitor library screening, A375 Parental, 1μΜ","A375 cells (parental); 1μΜ, 72 h",108.3
same,"Cell viability in kinase inhibitor library screening, A375 GP, 10μΜ","[3]; 10μΜ, 72 h",88.5
same,"Cell viability in kinase inhibitor library screening, A375 XP, 1μΜ","[4]; 1μΜ, 72 h",102.8
same,"Cell viability in kinase inhibitor library screening, A375 XP, 10μΜ","[4]; 10μΜ, 72 h",96.9
same,"Cell viability in kinase inhibitor library screening, IGR37 Parental, 1μΜ","IGR37 cells (parental); 1μΜ, 72 h",108.5
same,"Cell viability in kinase inhibitor library screening, IGR37 Parental, 10μΜ","IGR37 cells (parental); 10μΜ, 72 h",95.3
same,"Cell viability in kinase inhibitor library screening, IGR37 GP, 10μΜ","[5]; 10μΜ, 72 h",89.1%
same,"Cell viability in kinase inhibitor library screening, IGR37 GP, 1μΜ","[5]; 1μΜ, 72 h, in %",96.8
same,"Cell viability in kinase inhibitor library screening, IGR37 XP, 10μΜ","[6]; 10μΜ, 72 h",78.1%
CCCNC(=O)Nc1ccc(Oc2ncnc3cc(OC)c(OC)cc23)cc1Cl [KRN 633],cell viability (kinase inhibitor library screening),501Mel cells (parental); 1μΜ,94.4
same,cell viability (kinase inhibitor library screening),501Mel cells (parental); 10μΜ,91.7
same,cell viability (kinase inhibitor library screening),[1]; 1μΜ,106.2
same,cell viability (kinase inhibitor library screening),[1]; 10μΜ,89.7
same,cell viability (kinase inhibitor library screening),[2]; 10μΜ,80.1
same,cell viability (kinase inhibitor library screening),A375 cells (parental); 1μΜ,103.4
same,cell viability (kinase inhibitor library screening),A375 cells (parental); 10μΜ,92.6
same,cell viability (kinase inhibitor library screening),[3]; 1μΜ,99.0
same,cell viability (kinase inhibitor library screening),[3]; 10μΜ,89.8
same,cell viability (kinase inhibitor library screening),[4]; 10μΜ,103.6
same,cell viability (kinase inhibitor library screening),IGR37 cells (parental); 1μΜ,99.7
same,cell viability (kinase inhibitor library screening),IGR37 cells (parental); 10μΜ,109.9
same,cell viability (kinase inhibitor library screening),"[5]; 1μΜ, in %",92.2
same,cell viability (kinase inhibitor library screening),"[5]; 10μΜ, in %",93.4
same,cell viability (kinase inhibitor library screening),[6]; 1μΜ,98.3
same,cell viability (kinase inhibitor library screening),[6]; 10μΜ,68.5
